Test results from article PMC7807051, “Modulation of cAMP metabolism for CFTR potentiation in human airway epithelial cells” (Scientific Reports, 2021).

Tests used:
[1] = test system: CFTR; assay: In vitro CFTR membrane potential assay in Calu-3 cells; format: cell-based, human; settings: Calu-3
Protocol: An in vitro CFTR membrane potential assay was performed on Calu-3 cells and primary human bronchial epithelial cells, from two independent donors, cultured at 37 °C as previously described. All human samples were collected from consented individuals under ethics approval granted by Hamilton Integrated Research Ethics Board (Project Number 5099-T).
Calu-3 cells were grown for 21 days on 96-well plates and primary HBECs were grown for 14 days under air–liquid interface conditions on collagen-coated (Sigma-Aldrich) 6.5 mm Transwell Inserts (Corning). All cells were washed with HBSS prior to experimental conditions. After washing with HBSS, cells were loaded with BLUE Membrane Potential Dye (Molecular Devices, #R8042) dissolved in 37 °C chloride-free buffer (NMDG Gluconate Buffer – 150 mM NMDG-gluconate, 3 mM KCl, 10 mM HEPES, pH 7.35, 300 mOsm). Immediately after dye loading, CFTR activity measurements were taken. CFTR activity measurements are fluorescent readouts for detecting ion channel activity. CFTR inhibition was performed with CFTRinh-172 (10 μM) for all experiments to attribute changes in fluorescence as CFTR channel activity. This assay has been validated using proof of concept studies where results obtained from this assay were able to recapitulate findings obtained from direct measurements of ion channel activity using Ussing chambers. At the end of this assay, raw data was exported for statistical analysis.
For Calu-3 cells, measurements were taken during baseline (40 min), cAMP elevation (30 min), and CFTR inhibition (20 min). cAMP elevation was performed using forskolin or isoproterenol (0.0005–50 μM). For assays with ABCC4 or PDE-4 inhibitors, a pre-incubation with the inhibitors (30 min) in the plate reader was performed prior to cAMP elevation. CFTR modulator VX-770 was used at 1 μM. CFTR activity was determined by dividing a single membrane potential peak measurement after the ABCC4 or PDE-4 inhibition and cAMP elevation additions to the stabilized baseline over DMSO control.
For in vitro CFTR membrane potential assays, in Calu-3 cells, values were normalized to the averaged baseline over averaged vehicle (DMSO) control of all biological replicates. SD was calculated using data from biological replicates (n = 4–8). An area under the curve (AUC), half-maximal concentration (EC50), […] (Emax), and baseline analysis was performed for each individual replicate then averaged together. The AUC analysis is an aggregate measure of sensitivity and maximal response, allowing for the observation of the total net responsiveness of the cells. The AUC analysis was done by normalizing the individual replicates to the bottom most value of the averaged vehicle control. In primary HBECs, six independent measurements were taken within a single Transwell insert. The value is the average of at least six measurements. These values were normalized to the averaged baseline over the averaged vehicle (DMSO) control. SD was calculated by treating the six measurements as independent, with additional technical replicates (n = 6–18). An AUC and max peak analysis were performed for each measurement, then averaged together. The max peak analysis was the max CFTR activity achieved during the drug addition step.
In order to compare the independent experiments performed, a fold-change analysis using individual AUC, EC50, and Emax, determined from their respective concentration–response curves, was performed and was normalized to the averaged DMSO vehicle control. A one-way ANOVA with subsequent post-hoc test or a paired t-test was performed. Statistical analysis was performed using GraphPad Prism 6.

[2] = test system: G551D-CFTR; set-up: method as in PMID 21083385, PMID 22047557; settings: G551D-CFTR variants; various doses and treatment durations; cited from earlier work
[3] = forskolin (FSK) curve with agent vs DMSO control
[4] = isoproterenol (ISO) curve with agent vs DMSO control

## CC(C)(C)c1cc(C(C)(C)C)c(NC(=O)c2c[nH]c3ccccc3c2=O)cc1O [VX-770, ivacaftor]
[1]; FSK stimulation, comparison across independent experiments
  Fold-change of AUC relative to vehicle control: superior to either ABCC4 (MK-571) or PDE-4 (Roflumilast) inhibition alone
[1]; [3]
  Baseline of concentration–response curve, CFTR activity: no significant changes
  EC50 of concentration–response curve, CFTR activity: increased the sensitivity
  Emax of concentration–response curve, CFTR activity: remained unchanged
[1]; forskolin (FSK) curve with agent vs DMSO control, VX-770 1 μM, MK-571 1.8 μM, Ceefourin-1 4.8 μM, Roflumilast 1 μM, Rolipram 10 μM, IBMX 100 μM
  AUC of concentration–response curve, CFTR activity: significant increase
[1]; [4]
  Baseline of concentration–response curve, CFTR activity: significant increase
  EC50 of concentration–response curve, CFTR activity: no changes
  Emax of concentration–response curve, CFTR activity: no changes
[1]; isoproterenol (ISO) curve with agent vs DMSO control, same agent concentrations as E5
  AUC of concentration–response curve, CFTR activity: significant increase
[2]
  predicted forced expiratory volume in 1 s (FEV1) from baseline: significant increases
